Measurements published in PMC3425516 (PLoS ONE, 2012).

How the values were obtained:
recombinant human HDAC8 = recombinant human HDAC8 (Homo sapiens, UniProt Q9BY41); experiment: biochemical
Excerpt: The HDACs in vitro activities of recombinant human HDAC 1, 2, 4, 6 and 8 (BPS Biosciences) were detected by fluorigenic release of 7-amino-4-methylcoumarin from substrate upon deacetylase enzymatic activity.

HCT116 cells [1] = experiment: Western blot histone H3 and α-tubulin acetylation; format: cell-based, human; conditions: 24 h
Experimental: (§1) For total lysate, cells were lysed with the 120 µL ice-cold lysis buffer [10 mmol/L Tris-HCl (pH 7.4), 150 mmol/L NaCl, 1 mmol/L EGTA, 1 mmol/L phenylmethylsulfonyl fluoride, 10 µg/mL aprotinin, 10 µg/mL leupeptin, 1 mM sodium orthovandate, 1 mM NaF, and 1% Triton X-100]. Cell lysates were centrifuged at 13,000 rpm for 30 min. For Western blot analysis, the amount of protein (40 µg) was separated by electrophoresis in a 10% or 15% polyacrylamide gel and transferred to a polyvinylidene difluoride (PVDF) membrane. After 1 h incubation at room temperature in PBS/5% nonfat milk, the membrane was washed with PBS/0.1% and incubated with the indicated antibodies at 4°C overnight. After washings with PBS/0.1% Tween 20, the corresponding secondary antibodies were applied to the membranes for 1 h at room temperature. The membranes were then washed with PBS/0.1% Tween 20 and the detection of signal was done with an enhanced chemiluminescence detection kit (Amersham, Buckinghamshire, UK).

HCT116 cells [2] = experiment: Western blot caspase 3 and PARP; format: cell-based, human; conditions: 24 h
Experimental: as §1, with “For Western blot analysis, the amount of protein (40 µg) was separated by electrophoresis in a 10% or 15% polyacrylamide gel and transferred to a polyvinylidene difluoride (PVDF) membrane.” left out

MALME-3M = experiment: NCI-60 cell lines screening; format: cell-based, human; conditions: Melanoma panel
Experimental: (§2) The NCI-60 cancer cell lines screening was conducted by the NCI’s Developmental Therapeutics Program (DTP; http://www.dtp.nci.nih.gov/branches/btb/ivclsp.html).

OVCAR-3 = experiment: NCI-60 cell lines screening; format: cell-based, human; conditions: OVCAR-3, Ovarian Cancer panel
Experimental: as §2

OVCAR-5 = experiment: NCI-60 cell lines screening; format: cell-based, human; conditions: OVCAR-5, Ovarian Cancer panel
Experimental: as §2

SF-539 = experiment: NCI-60 cell lines screening; format: cell-based, human; conditions: SF-539, CNS Cancer panel
Experimental: as §2

CCRF-CEM = experiment: NCI-60 cell lines screening; format: cell-based, human; conditions: Leukemia panel
Experimental: as §2

HOP-92 = experiment: NCI-60 cell lines screening; format: cell-based, human; conditions: HOP-92, Non-Small Cell Lung Cancer panel
Experimental: as §2

SK-MEL-28 = experiment: NCI-60 cell lines screening; format: cell-based, human; conditions: SK-MEL-28, Melanoma panel
Experimental: as §2

KM12 = experiment: NCI-60 cell lines screening; format: cell-based, human; conditions: KM12, Colon Cancer panel
Experimental: as §2

IGROV1 = experiment: NCI-60 cell lines screening; format: cell-based, human; conditions: IGROV1, Ovarian Cancer panel
Experimental: as §2

NCI-H23 = experiment: NCI-60 cell lines screening; format: cell-based, human; conditions: NCI-H23, Non-Small Cell Lung Cancer panel
Experimental: as §2

HOP-62 = experiment: NCI-60 cell lines screening; format: cell-based, human; conditions: HOP-62, Non-Small Cell Lung Cancer panel
Experimental: as §2

SN12C = experiment: NCI-60 cell lines screening; format: cell-based, human; conditions: Renal Cancer panel
Experimental: as §2

SK-MEL-5 = experiment: NCI-60 cell lines screening; format: cell-based, human; conditions: SK-MEL-5, Melanoma panel
Experimental: as §2

OVCAR-4 = experiment: NCI-60 cell lines screening; format: cell-based, human; conditions: OVCAR-4, Ovarian Cancer panel
Experimental: as §2

NCI-H522 = experiment: NCI-60 cell lines screening; format: cell-based, human; conditions: NCI-H522, Non-Small Cell Lung Cancer panel
Experimental: as §2

COLO 205 = experiment: NCI-60 cell lines screening; format: cell-based, human; conditions: COLO 205, Colon Cancer panel
Experimental: as §2

SNB-75 = experiment: NCI-60 cell lines screening; format: cell-based, human; conditions: SNB-75, CNS Cancer panel
Experimental: as §2

PC-3 = experiment: NCI-60 cell lines screening; format: cell-based, human; conditions: PC-3, Prostate Cancer panel
Experimental: as §2

HCT116 xenograft tumors = experiment: Western blot of HCT116 xenograft tumor tissues; format: in vivo, nude mice; conditions: 200 mg/kg oral daily for 7 days
Experimental: as §1, with “For Western blot analysis, the amount of protein (40 µg) was separated by electrophoresis in a 10% or 15% polyacrylamide gel and transferred to a polyvinylidene difluoride (PVDF) membrane.” left out
Once a tumor was palpable with the size of approximately 55 mm^3, mice were randomized into vehicle control and treatment groups (8 mice per group). Control mice received the vehicle (0.5% carboxymethyl cellulose +0.1% Tween 80). Tumors in all 3 groups were allowed to reach an endpoint volume of 1,200 mm^3.

[3] = Homo sapiens, read-out: LC50 (the source's name)

Chain of recombinant human HDAC8 (Q9BY41 whole entry): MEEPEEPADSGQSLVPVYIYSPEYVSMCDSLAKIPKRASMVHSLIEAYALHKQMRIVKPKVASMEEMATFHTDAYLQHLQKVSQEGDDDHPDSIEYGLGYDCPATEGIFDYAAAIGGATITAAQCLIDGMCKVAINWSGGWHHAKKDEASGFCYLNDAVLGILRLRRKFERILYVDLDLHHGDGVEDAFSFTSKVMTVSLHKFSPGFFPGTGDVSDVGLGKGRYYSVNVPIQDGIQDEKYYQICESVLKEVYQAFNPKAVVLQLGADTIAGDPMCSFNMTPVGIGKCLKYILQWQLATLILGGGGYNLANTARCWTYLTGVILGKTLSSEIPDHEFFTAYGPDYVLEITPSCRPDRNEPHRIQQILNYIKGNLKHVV

In the case of `O=C(C=Cc1ccc2c(c1)CCN2S(=O)(=O)c1ccccc1)NO` [MPT0E028, 3-(1-benzenesulfonyl-2,3-dihydro-1H-indol-5-yl)-N-hydroxy-acrylamide], the IC50 (recombinant human HDAC8) is reported as 2530 ± 315 nM, the “histone H3 acetylation (western blot)” value (HCT116 cells [1]) is reported as “induced stronger hyperacetylation of histone H3 than that of SAHA” and the “caspase 3 and PARP activation (western blot)” value (HCT116 cells [2]) is reported as “induced caspase 3 and PARP activation in a concentration-dependent manner”. The GI50 (MALME-3M; Homo sapiens) was 37.5 nM, the CC50 (MALME-3M; [3]) was over 100000 nM and the TGI (MALME-3M) was 907 nM. It also gave a GI50 (OVCAR-3; Homo sapiens) of 233 nM, a CC50 (OVCAR-3; [3]) of 7300 nM and a TGI (OVCAR-3) of 933 nM. For the same molecule, the GI50 (OVCAR-5; Homo sapiens) was 60.2 nM, the CC50 (OVCAR-5; [3]) was 2580 nM and the TGI (OVCAR-5) was 316 nM. The GI50 (SF-539; Homo sapiens) was 241 nM, the CC50 (SF-539; [3]) was 3390 nM and the TGI (SF-539) was 1150 nM. The GI50 (CCRF-CEM; Homo sapiens) was 165 nM, the CC50 (CCRF-CEM; [3]) was over 100000 nM and the TGI (CCRF-CEM) was over 100000 nM. The TGI (HOP-92) was 814 nM, the GI50 (HOP-92; Homo sapiens) was 210 nM and the CC50 (HOP-92; [3]) was 18000 nM. It also gave a GI50 (SK-MEL-28; Homo sapiens) of 406 nM, a CC50 (SK-MEL-28; [3]) of over 100000 nM and a TGI (SK-MEL-28) of 2740 nM. It also gave a GI50 (KM12; Homo sapiens) of 286 nM, a CC50 (KM12; [3]) of 5780 nM and a TGI (KM12) of 1490 nM. It also gave a GI50 (IGROV1; Homo sapiens, IGROV-1) of 183 nM, a CC50 (IGROV1; Homo sapiens, IGROV-1, read-out: LC50 (the source's name)) of 2390 nM and a TGI (IGROV1) of 533 nM. It also gave a GI50 (NCI-H23; Homo sapiens) of 188 nM, a CC50 (NCI-H23; [3]) of 3840 nM and a TGI (NCI-H23) of 922 nM. For the same molecule, the TGI (HOP-62) was 1060 nM, the GI50 (HOP-62; Homo sapiens) was 187 nM and the CC50 (HOP-62; [3]) was 19200 nM. The GI50 (SN12C; Homo sapiens) was 458 nM, the CC50 (SN12C; [3]) was over 100000 nM and the TGI (SN12C) was 10200 nM. It also gave a GI50 (SK-MEL-5; Homo sapiens) of 136 nM, a CC50 (SK-MEL-5; [3]) of 705 nM and a TGI (SK-MEL-5) of 310 nM. The GI50 (OVCAR-4; Homo sapiens) was 509 nM, the CC50 (OVCAR-4; [3]) was over 100000 nM and the TGI (OVCAR-4) was 31800 nM. For the same molecule, the GI50 (NCI-H522; Homo sapiens) was 167 nM, the CC50 (NCI-H522; [3]) was 13000 nM and the TGI (NCI-H522) was 845 nM. For the same molecule, the TGI (COLO 205) was 264 nM, the GI50 (COLO 205; Homo sapiens) was 128 nM and the CC50 (COLO 205; [3]) was 546 nM. It also gave a GI50 (SNB-75; Homo sapiens) of 59.1 nM, a CC50 (SNB-75; [3]) of 32800 nM and a TGI (SNB-75) of 6270 nM. The GI50 (PC-3; Homo sapiens) was 240 nM, the CC50 (PC-3; [3]) was over 100000 nM and the TGI (PC-3) was 21000 nM. The “expression of caspase 3, PARP, acetyl-histone H3 and acetyl-tubulin in xenograft tumors” value (HCT116 xenograft tumors) was “caspase 3, PARP and acetyl-histone H3 were substantially induced”.
